Source: publication PMC10007777, “Glycyrrhizic acid inhibits myeloid differentiation of hematopoietic stem cells by binding S100 calcium binding protein A8 to improve cognition in aged mice” (Immunity & Ageing : I & A, 2023)

Biological target: T1, S100A8 protein (S100 calcium binding protein A8; MRP-8) (Mus musculus, UniProt P27005)
T1 construct: amine-coupled to CM5 (COOH) chip
T1 sequence (P27005 2-89): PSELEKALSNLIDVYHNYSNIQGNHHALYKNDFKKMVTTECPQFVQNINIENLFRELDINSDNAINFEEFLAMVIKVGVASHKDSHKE
Assay: SPR (BIAcore […]), S100A8 immobilized
Details: 20 mM Tris-HCl, 150 mM NaCl, 1 mM TCEP, pH 7.2, 25 C; GA 0-500 uM

## CC1(C)[C@@H](O[C@H]2O[C@H](C(=O)O)[C@@H](O)[C@H](O)[C@H]2O[C@@H]2O[C@H](C(=O)O)[C@@H](O)[C@H](O)[C@H]2O)CC[C@]2(C)[C@H]3C(=O)C=C4[C@@H]5C[C@@](C)(C(=O)O)CC[C@]5(C)CC[C@@]4(C)[C@]3(C)CC[C@@H]12 [GA, Glycyrrhizic acid]
  binding (SPR): The experimental results show binding between GA and S100A8 protein (Fig. 5E).
